Key:
[1] = target: aryl hydrocarbon receptor (AhR) (Mus musculus (Mouse), UniProt P30561); assay: AhR ligand screening: AhRE-luciferase reporter in transfected Hepa1 cells; format: cell-based; conditions: for Fold @ 1 nM: fold change of luciferase expression at 1 nM test compound relative to vehicle (0.1% DMSO); for Fold @ 100 nM: fold change of luciferase expression at 100 nM test compound relative to vehicle (0.1% DMSO); for Fold @ 10 uM: fold change of luciferase expression at 10 uM test compound relative to vehicle (0.1% DMSO); for Fold relative to benchmark @ 100 nM: luciferase expression at 100 nM test compound relative to 100 nM benchmark compound 11-cl-BBQ
Sequence of aryl hydrocarbon receptor (AhR) (P30561 10-805): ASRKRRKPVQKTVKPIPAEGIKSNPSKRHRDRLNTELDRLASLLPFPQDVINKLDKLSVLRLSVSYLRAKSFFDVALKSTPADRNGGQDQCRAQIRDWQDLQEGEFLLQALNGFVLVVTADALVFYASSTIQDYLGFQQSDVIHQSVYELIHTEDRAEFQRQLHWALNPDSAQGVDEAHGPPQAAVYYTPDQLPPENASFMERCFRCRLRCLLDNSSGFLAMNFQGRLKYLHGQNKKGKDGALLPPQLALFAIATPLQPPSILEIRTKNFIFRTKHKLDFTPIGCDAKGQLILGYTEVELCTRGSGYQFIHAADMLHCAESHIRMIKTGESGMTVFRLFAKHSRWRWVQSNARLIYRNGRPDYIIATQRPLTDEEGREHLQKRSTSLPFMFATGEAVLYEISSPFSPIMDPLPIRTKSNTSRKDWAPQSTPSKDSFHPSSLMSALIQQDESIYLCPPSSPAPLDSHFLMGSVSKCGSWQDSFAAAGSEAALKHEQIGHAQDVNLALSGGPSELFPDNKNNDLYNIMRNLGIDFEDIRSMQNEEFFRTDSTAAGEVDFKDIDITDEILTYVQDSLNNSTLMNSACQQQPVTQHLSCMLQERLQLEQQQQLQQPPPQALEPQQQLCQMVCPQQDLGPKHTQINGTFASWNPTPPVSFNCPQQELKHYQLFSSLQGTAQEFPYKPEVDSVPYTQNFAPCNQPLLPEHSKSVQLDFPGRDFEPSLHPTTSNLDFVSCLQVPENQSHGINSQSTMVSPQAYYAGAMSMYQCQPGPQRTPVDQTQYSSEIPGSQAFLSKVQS
Sequence of aryl hydrocarbon receptor (AhR) (P53762 whole entry partner): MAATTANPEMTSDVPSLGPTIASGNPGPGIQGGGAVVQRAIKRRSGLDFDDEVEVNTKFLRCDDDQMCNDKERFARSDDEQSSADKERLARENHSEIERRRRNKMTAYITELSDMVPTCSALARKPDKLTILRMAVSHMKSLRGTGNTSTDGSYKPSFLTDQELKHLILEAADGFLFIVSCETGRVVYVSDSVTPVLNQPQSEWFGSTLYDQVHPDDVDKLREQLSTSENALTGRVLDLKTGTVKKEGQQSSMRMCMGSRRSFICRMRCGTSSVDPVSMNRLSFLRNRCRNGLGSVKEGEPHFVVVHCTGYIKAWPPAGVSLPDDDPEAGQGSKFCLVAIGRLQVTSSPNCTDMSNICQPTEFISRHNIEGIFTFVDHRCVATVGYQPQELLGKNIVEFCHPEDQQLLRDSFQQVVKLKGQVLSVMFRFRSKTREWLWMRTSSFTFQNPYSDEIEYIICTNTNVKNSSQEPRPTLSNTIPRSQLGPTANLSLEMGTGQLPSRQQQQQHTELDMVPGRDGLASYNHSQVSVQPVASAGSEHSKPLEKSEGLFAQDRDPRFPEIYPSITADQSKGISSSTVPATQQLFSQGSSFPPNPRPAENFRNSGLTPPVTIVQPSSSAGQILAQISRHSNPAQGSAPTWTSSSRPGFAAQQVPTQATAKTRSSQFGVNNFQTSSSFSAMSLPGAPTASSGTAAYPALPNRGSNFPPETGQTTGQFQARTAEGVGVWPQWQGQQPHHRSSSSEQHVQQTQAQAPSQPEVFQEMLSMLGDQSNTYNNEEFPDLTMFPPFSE
In short: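 Mouse Hepa1 cells transfected with an AhRE-luciferase reporter were plated at 1×10^4 cells/well, grown overnight, then exposed to compounds. Cell lysates were assayed for luciferase by luminometry, with results given as fold induction over 0.1% DMSO vehicle.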

[2] = human, microsomes, 0.5 h, 1 μM, pH 7.4
Method: (§1) The assessment of metabolic stability of testing compounds was performed using human, mouse, rat, dog and monkey liver microsomes (20 mg protein/ml). Each reaction mixture contained 42.5 μL of 0.1 M potassium phosphate buffer pH 7.4, containing respective LM protein (final concentration 0.5 mg/ml). 2.5 μL of the compound stock solution was added in it (1 μM final concentration). The reaction was initiated by the addition of 5 μL NADPH solution (final Concentration 1 mM). At different time points (0, 5, 15, and 30 minutes), samples were quenched with 200 μL of cold acetonitrile containing ISTD Propranolol. Samples were centrifuged at 3500 rpm for 20 mM at 4° C. Supernatant was subjected to LC-MS/MS analysis for quantification. Verapamil was used as a positive control.

[3] = mouse, microsomes, 0.5 h, 1 μM, pH 7.4
Method: as §1

[4] = rat, microsomes, 0.5 h, 1 μM, pH 7.4
Method: as §1

in vitro [5] = conditions: human, microsomes, pH 7.4
Method: as §1

in vitro [6] = conditions: mouse, microsomes, pH 7.4
Method: as §1

in vitro [7] = conditions: rat, microsomes, pH 7.4
Method: as §1

T1D = conditions: murine model; cited from earlier work
GVHD = conditions: murine model; cited from earlier work
[8] = acute or chronic treatment of mice, therapeutic dose; cited from earlier work

Structure (SMILES): O=C(c1ccc2ccccc2c1)c1c[nH]c2ccc(Cl)cc12 [Compound 885]
- Fold @ 1 nM [1]: 1 fold
- Fold @ 100 nM [1]: 1 fold
- Fold @ 10 uM [1]: 1 fold
- Fold relative to benchmark @ 100 nM [1]: 0.02 fold
- Rem @ HLM × 30 min [2]: 58.1%
- Rem @ MLM × 30 min [3]: 45.1%
- Rem @ RLM × 30 min [4]: 50.2%
- half-life at 1 μM (in vitro [5]): 36.8 min
- microsomal CLint at 1 μM (in vitro [5]): 37.7 µL/min/mg
- half-life at 1 μM (in vitro [6]): 27.5 min
- microsomal CLint at 1 μM (in vitro [6]): 50.4 µL/min/mg
- half-life at 1 μM (in vitro [7]): 30.7 min
- microsomal CLint at 1 μM (in vitro [7]): 45.1 µL/min/mg

Structure (SMILES): O=C(c1cccc2ccccc12)c1c[nH]c2cc(Cl)c(Cl)cc12 [Compound 434]
- Fold @ 1 nM [1]: 1 fold
- Fold @ 100 nM [1]: 1 fold
- Fold @ 10 uM [1]: 9 fold
- Fold relative to benchmark @ 100 nM [1]: 0.03 fold
- Rem @ HLM × 30 min [2]: 63.4%
- Rem @ MLM × 30 min [3]: 10.6%
- Rem @ RLM × 30 min [4]: 41.6%
- half-life at 1 μM (in vitro [5]): 48.7 min
- microsomal CLint at 1 μM (in vitro [5]): 28.5 µL/min/mg
- half-life at 1 μM (in vitro [6]): 10.7 min
- microsomal CLint at 1 μM (in vitro [6]): 129 µL/min/mg
- half-life at 1 μM (in vitro [7]): 28 min
- microsomal CLint at 1 μM (in vitro [7]): 49.6 µL/min/mg

Structure (SMILES): O=c1c2cccc3cccc(c32)c2nc3cc(Cl)ccc3n12 [Compound 11-Cl-BBQ, 11-chloro-7H-benzimidazo[2,1-a]benzo[de]-Iso-quinolin-7-one]
- development of T1D (T1D): suppress the development of T1D
- development of GVHD (GVHD): suppress the development of T1D and GVHD
- overt toxicity [8]: no overt toxicity

Source: patent US12473262B2, “Aryl hydrocarbon receptor activators” (Oregon State University, priority 2019, dated 2025)
